The values that follow come from a compilation of properties of binary mixtures (doi:10.1016/j.seppur.2020.117103).

The data set in a line: xn = mol fraction of the nth substance listed. As to conditions: 298.15 K, 100 kPa.

The term speed of sound denotes how fast a sound wave travels through the sample. Consider `CCO` + CC[n+]1ccn(C)c1.N#C[S-], for which the speed of sound (x1 = 1) turned out to be 1142 m/s.

For the compound `CC[n+]1ccn(C)c1.N#C[S-]` + CCO, the speed of sound was 1851 m/s (x2 = 0); 1797 m/s (x2 = 0.2134); 1751 m/s (x2 = 0.345); 1729 m/s (x2 = 0.3836); 1592 m/s (x2 = 0.6181); 1524 m/s (x2 = 0.6948). The speed of sound (x2 = 0.8944) turned out to be 1285 m/s.

Regarding `CO` + CC[n+]1ccn(C)c1.N#C[S-], where the note is “x1 = 1”, the speed of sound turned out to be 1103 m/s.

With `CC[n+]1ccn(C)c1.N#C[S-]` + CO, the speed of sound runs as follows: (x2 = 0) 1851 m/s; (x2 = 0.2018) 1813 m/s; (x2 = 0.3185) 1780 m/s; (x2 = 0.4076) 1750 m/s; (x2 = 0.5037) 1711 m/s; (x2 = 0.5936) 1655 m/s. The speed of sound was 1585 m/s (x2 = 0.6923), 1477 m/s (x2 = 0.805) and 1328 m/s (x2 = 0.9014).
